One data set has as its system budding yeast. The arrangement: method as in PMID 29783050. To be noted: cited from earlier work.
For the next data set, the system named is human ERα. Details: method as in PMID 15840436. To be noted: 10.0 μM of MEHP in the presence of 10.0 pM E2; cited from earlier work.
In data set [1] the test system is estrogen responsive elements (ERE-luc or AP-1-luc). Details: method as in PMID 20209442. The conditions noted are these: 10 μM of MEHP; cited from earlier work.
For another data set, the system named is male rats. Details: method as in PMID 17654256. The conditions noted are these: cited from earlier work.
A further data set has as its system MCF-7 cells. Details: method as in PMID 12913283. To be noted: cited from earlier work.
The next data set deals with estrogen receptor. The arrangement: method as in PMID 26272952. The conditions noted are these: computational network model; cited from earlier work.
The subject of a further data set is fetal testis. The conditions noted are these: cited from earlier work.
The subject of data set [2] is YES and YAS Saccharomyces cerevisiae yeasts. Kind of data set: Yeast cytotoxicity (growth factor, absorbance at 690 nm).

“Also recorded” adds a separate entry of the source.

`CCCCC(CC)COC(=O)c1ccccc1C(=O)O` (stereo not drawn) [MEHP, mono-(2-ethylhexyl) phthalate]: in the data set with budding yeast, the “concentration at which cytotoxicity was induced” value is 1600 µM. Also, the results for the anti-estrogenic activity entry with human ERα, with MCF-7 cells and with estrogen receptor were “no anti-estrogenic activity”, “decrease of natural estrogenic activity” and “no anti-estrogenic activity”, respectively. The estrogenic activity entry in data set [1] is recorded as “estrogenic effect”. For the same compound, in the data set on male rats, the “weights of ventral prostate, seminal vesicles and levator ani/bulbocavernosus (LABC)” value is reported as “decreased weights”. In addition, the testosterone production result in the data set on fetal testis is listed as “did not affect”. The “cytotoxicity (yeast cell viability)” value in data set [2] (100 nM to 1.00 mM) is on record as “did not induce yeast toxicity; also recorded: no effect”; in data set [2] (10.0 mM, growth factor below 0.5), “significant cytotoxicity”.

The values above are taken from publication PMC6515293 (Molecules, 2019).
